What was measured:
Kv1.3 channel = Kv1.3 channel (Homo sapiens, UniProt P22001); test: Inhibition of the Kv1.3 channel, patch clamp method; type: cell-based
Excerpt: Furthermore, the invention deals with ion channels that constitute a set of molecular targets through which these 3-deoxyflavonoids exert their biological effects. The flavonoid compounds of this invention can lower and stabilize blood glucose levels in Type-I and Type-II diabetics, and can also ameliorate symptoms of lupus erythematosus, an autoimmune disease affecting several organs. Type-I diabetes is an autoimmune disease in which autoreactive lymphocytes destroy pancreatic P-cells, while the etiology of Type-II diabetes is due to inadequate insulin production and decreased ability of insulin to affect its target end-organs. Since ion channels play a critical role in lymphocytes and in pancreatic β-cell signaling, it is most likely that at least some of the therapeutic effects of flavonoids may arise through blockade of ion channels. […] The non-toxic nature of these flavonoids in humans makes them attractive as nutraceuticals that could complement or replace existing medications and therapies. Inhibition of the Kv1.3 channel was performed utilizing the patch clamp method desctribed by […]. Biol. Chem. 276: 12249.

[1] = test system: cytotoxic T lymphocyte line CTL264; test: CTL cytotoxicity against 264 peptide-pulsed T2 target cells (calcein release); type: cell-based; conditions: for inhibition of calcein release: FIG. 3
Procedure: A cytotoxic T lymphocyte line (CTL—designated CTL264) specific for a peptide antigen (aa 264-272, referred to as the 264 peptide) derived from the tumor suppressor protein p53 was used as a […] to test if luteolin had any effect on CTL cytotoxicity against 264 peptide-pulsed T2 target cells. T2 target cells were pulsed with 264 peptide for 2 hours and labeled with Calcein-AM for 30 minutes and washed three times. Mixtures of T2 cells and CTL264 were incubated for 4 hours. 100 μL supernatants were transferred to a 96-well flat-bottom microtiter plates to read fluorescence (538 nm) to measure calcein release due to cell lysis.
The spontaneous calcein release in cytotoxic T Lymphocytes was determined by incubation of targets in RPMI-10. The maximal calcein release was determined by incubation of targets in Triton X-100. Data are reported as the mean of triplicate determinations.

[2] = test system: chronic Type I (BBWor) diabetic rats; test: Blood glucose in chronic Type I (BBWor) diabetic rats; type: in vivo, rat; conditions: for blood glucose after treatment: 6 hours; for blood glucose before treatment: time 0; for decrease in blood glucose levels: within 6 hours of a single treatment (luteolin 3 mg intragastrically; PZI insulin subcutaneous)
Procedure: The effect of Luteolin treatment in chronic Type I (BBWor) diabetic rats was examined. In this study, lean male diabetic rats were randomly assigned to 3 treatment groups (3-4 rats/group). Each group received either: (1) 3 mg dose of luteolin intragastrically; (2) a subcutaneous injection of PZI insulin (0.9-1.2 mU/day); or (3) no treatment. Blood glucose was evaluated from time 0 through 6 hours. The data was expressed as average blood glucose relative to time post treatment.

[3] = test system: chronic Type 2 diabetic rats; test: Blood glucose in chronic Type 2 diabetic rats, 24 hr dose study; type: in vivo, rat
Procedure: Luteolin was also evaluated for its effect to reduce hyperglycemia in chronic Type 2 diabetic rats. In this study, the dose and frequency of Luteolin treatment was increased to compensate for the enhanced metabolism of the obese rat. First, a 24 hour baseline study was performed on 9 chronic Type 2 rats. […] These same rats were randomly assigned to 3 groups and given 50, 150 and 250 mg doses of Luteolin at three times during the 24 hr period (11 AM, 2 PM and 8 PM). Blood glucose analysis was evaluated every 2 hours.

[4] = test system: obese Type II (BBZDR) diabetic rats; test: Blood glucose in Type II BBZDR rats, two weeks of treatment; type: in vivo, rat
Procedure: In this example, the dose of luteolin was standardized to 50 mg three times per day in the same group of Type II BBZDR rats from Example 5 over an extended period of treatment of two weeks. […] The data was expressed for each rat as a percentage change in blood glucose level relative to each individual pre-treatment level.

[5] = cited from earlier work
[6] = 50 mg three times per day for two weeks
[7] = fried onions, equivalent to 64 mg quercetin aglycone

Chain of Kv1.3 channel (P22001 whole entry): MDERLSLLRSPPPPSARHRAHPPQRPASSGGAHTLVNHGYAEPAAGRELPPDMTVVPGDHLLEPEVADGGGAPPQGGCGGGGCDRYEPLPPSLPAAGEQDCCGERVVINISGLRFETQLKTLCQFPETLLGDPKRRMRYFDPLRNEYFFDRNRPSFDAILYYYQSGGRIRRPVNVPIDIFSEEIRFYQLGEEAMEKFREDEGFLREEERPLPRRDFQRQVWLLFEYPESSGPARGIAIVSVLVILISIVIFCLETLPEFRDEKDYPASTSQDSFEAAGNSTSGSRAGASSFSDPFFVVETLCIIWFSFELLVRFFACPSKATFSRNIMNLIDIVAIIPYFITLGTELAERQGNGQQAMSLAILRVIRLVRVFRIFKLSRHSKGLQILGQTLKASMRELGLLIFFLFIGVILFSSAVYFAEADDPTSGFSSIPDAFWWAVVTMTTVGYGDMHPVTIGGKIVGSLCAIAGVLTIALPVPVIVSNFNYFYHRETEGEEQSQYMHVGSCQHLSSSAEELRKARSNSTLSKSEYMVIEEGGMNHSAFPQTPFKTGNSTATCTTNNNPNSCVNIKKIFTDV

Compound: O=c1cc(-c2ccc(O)c(O)c2)oc2cc(O)cc(O)c12 [luteolin, 3′,4′,5,7-tetrahydroxyflavone]
- block of Kv1.3 channel current vs. control (Kv1.3 channel; 20 uM concentration): approximately 25%
- block of Kv1.3 channel current vs. control (Kv1.3 channel; 100 uM concentration): 100%
- inhibition of CTL cytotoxicity against 264-pulsed T2 target cells ([1]; 4 hours incubation, FIG. 2): significantly inhibited
- inhibition of calcein release [1]: inhibition of calcein release
- blood glucose after treatment [2]: 307 mg/dL
- blood glucose before treatment [2]: 445 mg/dL
- decrease in blood glucose levels [2]: 31%
- decrease in blood glucose levels ([3]; 50 mg three times a day (150 mg total), within 24 hr): 10.2%
- drop in blood glucose ([3]; 150 mg three times (450 mg total), 24 hr): 22.9%
- decrease in glucose ([3]; 250 mg three times (750 mg total), 24 hr): 27.7%
- blood glucose after treatment, one rat ([3]; intermediate dose, one rat, 18 hr): 372 mg/dL
- blood glucose before treatment, one rat ([3]; intermediate dose, one rat, start): 777 mg/dL
- reduction of blood glucose, one rat ([3]; intermediate dose, one rat, within 18 hr): 52%
- reduction of hyperglycemia over all doses ([3]; over a 24 hour period, 50-250 mg doses): 10-28%
- average blood glucose after treatment [4, 6]: 389 mg/dL
- average drop in blood glucose levels [4, 6]: 41.1%
- average blood glucose pre-treatment ([4]; before treatment): 660 mg/dL
- increase in blood glucose, rat #3 ([4]; rat #3 with esophagial fistula, two weeks): 9.3%

Compound: O=c1c(O)c(-c2ccc(O)c(O)c2)oc2cc(O)cc(O)c12 [quercetin]
- distribution phase half-life [5, 7]: 3.8 h
- elimination phase half-life [5, 7]: 16.8 h
- time of peak plasma levels [5, 7]: 2.9 h
- human absorption ([5]; oral): 24%

Compound: O=c1cc(-c2cc(O)c(O)c(O)c2)oc2cc(O)cc(O)c12 [tricetin]
- inhibition of calcein release [1]: inhibition of calcein release

Compound: insulin [reference compound]
- blood glucose after treatment [2]: 112 mg/dL
- blood glucose before treatment [2]: 415 mg/dL
- decrease in blood glucose levels [2]: 75%
